Measurements: paper PMC11279778 (2024)

What follows are molecules tested on Bcl-2 G-quadruplex (2F8U, 23-mer with 15,16-G-to-T mutations) (DNA, G4) GGGCGCGGGAGGAATTGGGCGGG (assay: CD melting at 265 nm). Settings: 100 mM KCl; 10 mM Tris-HCl pH 7.2; 3 eq ligand, 2 µM DNA.

| ΔTm | SMILES |
| --- | --- |
| 6.3 °C | CC[n+]1c(/C=C/c2ccc3c(c2)c2ccccc2n3CCCCn2ccnc2)sc2ccccc21 |
| 3.0 °C | CC[n+]1c(/C=C/c2ccc3c(c2)c2ccccc2n3CCCCn2cncn2)sc2ccccc21 |
| 3.1 °C | CCn1c2ccccc2c2cc(/C=C/c3sc4ccccc4[n+]3CC)ccc21 |
